Measured values taken from ChEMBL document CHEMBL1136860, “Synthesis and 5-lipoxygenase inhibitory activity of new cinnamoyl and caffeoyl clusters” (Bioorg Med Chem Lett, 2009).
Activity calls are given as the source filed them. The rule behind the calls is not given here.

Assays:
Type in all cases: cell-based
[1] = biological target: T1, Polyunsaturated fatty acid 5-lipoxygenase (Homo sapiens, UniProt P09917); test: Inhibition of human 5LOX expressed in HEK293 cells
T1 sequence (P09917 whole entry): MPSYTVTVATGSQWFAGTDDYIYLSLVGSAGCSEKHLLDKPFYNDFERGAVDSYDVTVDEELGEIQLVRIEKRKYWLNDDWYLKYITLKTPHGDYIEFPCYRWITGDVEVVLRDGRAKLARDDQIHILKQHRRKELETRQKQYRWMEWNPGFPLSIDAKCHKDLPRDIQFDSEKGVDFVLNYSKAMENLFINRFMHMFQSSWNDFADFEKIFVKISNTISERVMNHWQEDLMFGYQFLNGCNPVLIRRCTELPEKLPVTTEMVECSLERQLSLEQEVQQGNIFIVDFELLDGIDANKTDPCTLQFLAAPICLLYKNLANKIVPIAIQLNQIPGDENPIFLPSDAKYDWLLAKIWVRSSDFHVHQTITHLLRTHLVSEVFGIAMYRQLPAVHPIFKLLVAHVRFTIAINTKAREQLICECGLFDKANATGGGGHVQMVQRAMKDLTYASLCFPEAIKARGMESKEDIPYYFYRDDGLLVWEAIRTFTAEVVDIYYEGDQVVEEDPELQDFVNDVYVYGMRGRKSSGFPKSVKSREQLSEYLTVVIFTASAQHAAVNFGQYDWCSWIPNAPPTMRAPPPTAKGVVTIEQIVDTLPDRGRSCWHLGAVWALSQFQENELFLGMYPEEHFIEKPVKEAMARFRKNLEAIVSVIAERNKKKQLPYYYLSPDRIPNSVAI

[2] = biological target: T2, Polyunsaturated fatty acid 5-lipoxygenase (Homo sapiens) (UniProt P09917); test: Ratio of IC50 of caffeic acid to IC50 of compound for human 5LOX expressed in HEK293 cells
T2 sequence (whole entry): T1 sequence (P09917 whole entry)

[3] = biological target: T2, Polyunsaturated fatty acid 5-lipoxygenase (Homo sapiens); test: Inhibition of human 5LOX expressed in HEK293 cells at 1 uM

IC50 [1] [nM]	Ratio IC50 [2]	inhibition [3] [%]	Activity [3]	Structure (SMILES)
660	10.1	92	–	O=C(/C=C/c1ccc(O)c(O)c1)OCc1cn(CC(Cn2cc(COC(=O)/C=C/c3ccc(O)c(O)c3)nn2)(Cn2cc(COC(=O)/C=C/c3ccc(O)c(O)c3)nn2)Cn2cc(COC(=O)/C=C/c3ccc(O)c(O)c3)nn2)nn1
680	36.7	–	Active	O=C(/C=C/c1ccc(O)c(O)c1)OCCn1cc(COC(=O)/C=C/c2ccccc2)nn1
–	–	–	Active	O=C(/C=C/c1ccc(O)c(O)c1)OCc1cn(CC(COCC(Cn2cc(COC(=O)/C=C/c3ccc(O)c(O)c3)nn2)(Cn2cc(COC(=O)/C=C/c3ccc(O)c(O)c3)nn2)Cn2cc(COC(=O)/C=C/c3ccc(O)c(O)c3)nn2)(Cn2cc(COC(=O)/C=C/c3ccc(O)c(O)c3)nn2)Cn2cc(COC(=O)/C=C/c3ccc(O)c(O)c3)nn2)nn1
–	–	–	Active	O=C(/C=C/c1ccccc1)OCCn1cc(COC(=O)/C=C/c2ccc(O)c(O)c2)nn1
–	–	–	Active	O=C(/C=C/c1ccc(O)c(O)c1)OCCn1cc(COCC(COCc2cn(CCOC(=O)/C=C/c3ccc(O)c(O)c3)nn2)(COCc2cn(CCOC(=O)/C=C/c3ccc(O)c(O)c3)nn2)COCc2cn(CCOC(=O)/C=C/c3ccc(O)c(O)c3)nn2)nn1
740	16.8	–	Active	O=C(/C=C/c1ccc(O)c(O)c1)OCCn1cc(COC(=O)/C=C/c2ccc(O)c(O)c2)nn1
790	10.5	91	–	O=C(/C=C/c1ccc(O)c(O)c1)OCc1cn(CC(CO)(Cn2cc(COC(=O)/C=C/c3ccc(O)c(O)c3)nn2)Cn2cc(COC(=O)/C=C/c3ccc(O)c(O)c3)nn2)nn1
